Values joined by “and” are separate entries in the source; they are usually repeats but may differ in a detail not shown here. Equal values may be shown once.

The experiment has as its target T1, Mucosal addressin cell adhesion molecule 1/Integrin alpha-4/beta-7 (Homo sapiens, UniProt P13612+P26010+Q13477).
T1 sequence (P13612 whole entry): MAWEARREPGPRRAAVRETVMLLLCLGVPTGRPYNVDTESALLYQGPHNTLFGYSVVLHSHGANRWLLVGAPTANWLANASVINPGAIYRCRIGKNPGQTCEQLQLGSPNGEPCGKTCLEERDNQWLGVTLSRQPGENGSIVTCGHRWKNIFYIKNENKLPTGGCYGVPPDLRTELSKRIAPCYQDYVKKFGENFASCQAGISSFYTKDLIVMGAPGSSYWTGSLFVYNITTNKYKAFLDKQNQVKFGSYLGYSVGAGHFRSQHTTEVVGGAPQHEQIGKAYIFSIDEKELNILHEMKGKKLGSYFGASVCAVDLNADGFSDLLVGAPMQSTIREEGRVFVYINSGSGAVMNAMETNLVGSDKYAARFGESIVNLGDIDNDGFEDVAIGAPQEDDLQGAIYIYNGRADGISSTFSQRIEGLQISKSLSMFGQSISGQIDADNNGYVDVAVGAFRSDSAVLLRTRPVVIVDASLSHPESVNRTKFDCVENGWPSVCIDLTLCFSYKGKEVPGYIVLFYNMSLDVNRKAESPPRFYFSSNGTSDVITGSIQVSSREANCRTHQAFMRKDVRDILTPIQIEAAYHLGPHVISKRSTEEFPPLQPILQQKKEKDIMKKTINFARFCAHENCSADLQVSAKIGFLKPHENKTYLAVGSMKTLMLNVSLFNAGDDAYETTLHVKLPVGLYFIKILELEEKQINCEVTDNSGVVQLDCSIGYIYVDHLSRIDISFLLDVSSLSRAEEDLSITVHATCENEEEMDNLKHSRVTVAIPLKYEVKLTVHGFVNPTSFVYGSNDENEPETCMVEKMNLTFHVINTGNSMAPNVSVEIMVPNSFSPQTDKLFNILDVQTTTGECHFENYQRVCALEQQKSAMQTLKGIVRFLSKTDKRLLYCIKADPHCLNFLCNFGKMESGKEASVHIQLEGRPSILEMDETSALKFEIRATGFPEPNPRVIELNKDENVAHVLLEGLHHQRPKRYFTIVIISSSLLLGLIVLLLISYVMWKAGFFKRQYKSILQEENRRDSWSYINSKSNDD
T1 sequence (P26010 whole entry): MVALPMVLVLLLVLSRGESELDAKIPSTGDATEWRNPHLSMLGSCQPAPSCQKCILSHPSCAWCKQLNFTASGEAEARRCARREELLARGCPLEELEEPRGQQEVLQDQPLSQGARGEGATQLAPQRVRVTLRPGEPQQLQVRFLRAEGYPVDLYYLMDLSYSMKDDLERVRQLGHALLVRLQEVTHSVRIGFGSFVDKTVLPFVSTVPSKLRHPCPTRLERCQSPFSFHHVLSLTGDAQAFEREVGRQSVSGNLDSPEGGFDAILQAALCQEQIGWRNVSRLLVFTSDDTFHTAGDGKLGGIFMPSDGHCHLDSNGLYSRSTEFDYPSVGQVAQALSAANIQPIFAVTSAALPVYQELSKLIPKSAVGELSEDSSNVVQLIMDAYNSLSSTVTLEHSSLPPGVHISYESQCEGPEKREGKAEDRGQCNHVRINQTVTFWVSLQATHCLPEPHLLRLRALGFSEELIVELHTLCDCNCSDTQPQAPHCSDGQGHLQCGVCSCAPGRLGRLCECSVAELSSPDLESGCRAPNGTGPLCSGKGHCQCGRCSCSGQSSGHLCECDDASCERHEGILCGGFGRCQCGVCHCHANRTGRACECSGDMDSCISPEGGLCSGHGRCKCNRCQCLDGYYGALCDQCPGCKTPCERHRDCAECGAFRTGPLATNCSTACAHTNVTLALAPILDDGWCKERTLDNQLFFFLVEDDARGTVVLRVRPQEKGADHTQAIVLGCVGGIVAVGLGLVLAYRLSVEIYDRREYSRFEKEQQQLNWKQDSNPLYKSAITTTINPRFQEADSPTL
T1 sequence (Q13477 whole entry): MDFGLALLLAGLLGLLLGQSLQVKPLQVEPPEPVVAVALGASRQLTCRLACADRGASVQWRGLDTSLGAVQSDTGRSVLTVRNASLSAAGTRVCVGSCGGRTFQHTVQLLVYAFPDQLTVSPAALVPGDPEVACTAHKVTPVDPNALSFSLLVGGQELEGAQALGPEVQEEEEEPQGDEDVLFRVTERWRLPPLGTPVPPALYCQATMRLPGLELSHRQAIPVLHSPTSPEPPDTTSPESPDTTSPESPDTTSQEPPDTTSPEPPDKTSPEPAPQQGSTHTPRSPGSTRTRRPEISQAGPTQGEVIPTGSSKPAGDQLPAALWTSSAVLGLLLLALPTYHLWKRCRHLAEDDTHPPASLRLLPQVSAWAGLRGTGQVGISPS
Briefly: BINDING INHIBITION ACTIVITY EVALUATION TEST. The protocol: Coat the 96-well microplate (Costar) with 50 μL of recombinant human MAdCAM-1 (R&D Systems) solution per well, and incubate overnight (12-18 hours) at 4° C. Wash three times with 150 μL of TBS buffer per well. Block plate with 150 μL per well with blocking buffer for 1 h at 37° C. Wash three times with 150 μL of TBS buffer per well. Dilute the recombinant human integrin α4β7 (R&D Systems) with TBS buffer containing 0.1% bovine serum albumin (BSA), then add to the 96 well plate with 50 μL per well. Add 1 μL of test compound or DMSO, cover, incubate at room temperature for 2 h, wash three times with 150 μL of TBS buffer per well. Dilute the anti-β7 antibody (R&D Systems) with 0.1% BSA TBS buffer, then add to the 96 well plate with 50 μL per well, cover, incubate at room temperature for 1 h, wash three times with 150 μL of TBS buffer per well. Add 50 μL of streptavidin-HRP (R&D Systems) per well, incubate at room temperature for 20 min, wash three times with 150 μL of TBS buffer per well. Add 50 μL of TMB substrate solution (Sigma) per well, incubate at room temperature for 5-30 min, and add 25 μL of stop solution per well to stop the reaction. Finally, measure absorbance at 450 nm with microplate reader (SpectraMax 340PC. Molecular Devices). Repeat the test to find the binding rate […] at each concentration when the absorbance of the well without the test substance is used as 100%, and calculate the concentration IC50 that causes 50% binding inhibition.
Turning to `COC(=O)[C@H](Cc1ccc(-n2c(=O)n(C)c3cc(F)cc(F)c32)cc1)NC(c1ccccc1)(c1ccccc1)c1ccccc1` [US20240150287, Example 31], the IC50 was 5.34 nM.

With `COC(=O)[C@H](Cc1ccc(-n2c(=O)n(C)c3ccc(F)c(F)c32)cc1)NC(c1ccccc1)(c1ccccc1)c1ccccc1` [US20240150287, Example 33], the IC50 amounted to 2.7 nM. Then `COC(=O)[C@H](Cc1ccc(N2C(=O)C3(CC3)c3cc(F)ccc32)cc1)NC(c1ccccc1)(c1ccccc1)c1ccccc1` [US20240150287, Example 9], with 95.5 nM. In the case of `COC(=O)[C@H](Cc1ccc(N2C(=O)C3(CC3)c3ccccc32)cc1)NC(c1ccccc1)(c1ccccc1)c1ccccc1` [US20240150287, Example 6] it was 5.81 nM; in that of `COC(=O)[C@H](Cc1ccc(-n2c(=O)n(C3CC3)c3ccc(Cl)cc32)cc1)NC(c1ccccc1)(c1ccccc1)c1ccccc1` [US20240150287, Example 24], 5.67 nM; in that of `COC(=O)[C@H](Cc1ccc(N2C(=O)C3(CC3)c3cc(N(C)C)ccc32)cc1)NC(c1ccccc1)(c1ccccc1)c1ccccc1` [US20240150287, Example 12], 4.15 nM. In the case of `COC(=O)[C@H](Cc1ccc(N2C(=O)C3(CC3)c3cccc(Cl)c32)cc1)NC(=O)c1c(Cl)cc(N2CCOCC2)cc1Cl` [US20240150287, Example 19] it was 11.4 nM; in that of `COC(=O)[C@H](Cc1ccc(N2C(=O)C3(CC3)c3cccc(Cl)c32)cc1)NC(c1ccccc1)(c1ccccc1)c1ccccc1` [US20240150287, Example 2], 2.57 nM. `COC(=O)[C@H](Cc1ccc(-n2c(=O)n(C)c3cccc(Cl)c32)cc1)NC(c1ccccc1)(c1ccccc1)c1ccccc1` [US20240150287, Example 22]: the IC50 came out at 1.19 nM. Then `COC(=O)[C@H](Cc1ccc(-n2c(=O)n(C3CCN(C)CC3)c3cccc(Cl)c32)cc1)NC(c1ccccc1)(c1ccccc1)c1ccccc1` [US20240150287, Example 29], with 18.1 nM; and `COC(=O)[C@H](Cc1ccc(N2C(=O)C3(CC3)c3cccc(OC)c32)cc1)NC(c1ccccc1)(c1ccccc1)c1ccccc1` [US20240150287, Example 3], with 5.48 nM. Then `COC(=O)[C@H](Cc1ccc(-n2c(=O)n(C)c3cccc(F)c32)cc1)NC(c1ccccc1)(c1ccccc1)c1ccccc1` [US20240150287, Example 30], with 1.83 nM. Then `COC(=O)[C@H](Cc1ccc(N2C(=O)C(C)(C)c3cccc(Cl)c32)cc1)NC(c1ccccc1)(c1ccccc1)c1ccccc1` [US20240150287, Example 10], with 38.8 nM; and `COC(=O)[C@H](Cc1ccc(N2C(=O)C3(CC3)c3cc(F)c(F)cc32)cc1)NC(c1ccccc1)(c1ccccc1)c1ccccc1` [US20240150287, Example 1], with 14.3 nM.

With `COC(=O)[C@H](Cc1ccc(N2C(=O)C3(CC3)c3ccc(F)cc32)cc1)NC(c1ccccc1)(c1ccccc1)c1ccccc1` [US20240150287, Example 4], the IC50 is 2.54 nM and 8.02 nM. Then `COC(=O)[C@H](Cc1ccc(-n2c(=O)n(C)c3cccc(Cl)c32)cc1)NC(=O)c1c(Cl)cc(Cl)cc1Cl` [US20240150287, Example 38], with 27.9 nM; and `COC(=O)[C@H](Cc1ccc(-n2c(=O)n(C)c3cc(N(C)C)ccc32)cc1)NC(c1ccccc1)(c1ccccc1)c1ccccc1` [US20240150287, Example 37], with 5.09 nM. Then `COC(=O)[C@H](Cc1ccc(N2C(=O)C3(CC3)c3cccc(F)c32)cc1)NC(c1ccccc1)(c1ccccc1)c1ccccc1` [US20240150287, Example 5], with 6.21 nM; and `COC(=O)[C@H](Cc1ccc(N2C(=O)C3(CC3)c3cccc(Cl)c32)cc1)NC(=O)c1c(Cl)cc(Cl)cc1Cl` [US20240150287, Example 17], with 64.2 nM. In the case of `COC(=O)[C@H](Cc1ccc(N2C(=O)C3(CC3)c3cccc(Cl)c32)cc1)NC(=O)c1c(Cl)cc(N2CCC(N3CCOCC3)CC2)cc1Cl` [US20240150287, Example 21] it was 23.8 nM; in that of `COC(=O)[C@H](Cc1ccc(-n2c(=O)n(C)c3c(F)c(F)ccc32)cc1)NC(c1ccccc1)(c1ccccc1)c1ccccc1` [US20240150287, Example 34], 10.5 nM; in that of `COC(=O)[C@H](Cc1ccc(-n2c(=O)n(C3CC3)c3cccc(Cl)c32)cc1)NC(c1ccccc1)(c1ccccc1)c1ccccc1` [US20240150287, Example 25], 7.5 nM. For `COC(=O)[C@H](Cc1ccc(-n2c(=O)n(C)c3ccc(N(C)C)cc32)cc1)NC(c1ccccc1)(c1ccccc1)c1ccccc1` [US20240150287, Example 36], the IC50 turned out to be 1.51 nM. Then `COC(=O)[C@H](Cc1ccc(-n2c(=O)n(C3CC3)c3cccc(F)c32)cc1)NC(c1ccccc1)(c1ccccc1)c1ccccc1` [US20240150287, Example 27], with 8.81 nM; and `COC(=O)[C@H](Cc1ccc(-n2c(=O)n(C)c3cccc(OC)c32)cc1)NC(c1ccccc1)(c1ccccc1)c1ccccc1` [US20240150287, Example 35], with 0.45 nM. Then `COC(=O)[C@H](Cc1ccc(N2C(=O)C3(CCOCC3)c3cccc(Cl)c32)cc1)NC(c1ccccc1)(c1ccccc1)c1ccccc1` [US20240150287, Example 7], with 16.1 nM. In the case of `COC(=O)[C@H](Cc1ccc(-n2c(=S)n(C)c3cccc(Cl)c32)cc1)NC(c1ccccc1)(c1ccccc1)c1ccccc1` [US20240150287, Example 26] it was 160 nM.

In the case of `COC(=O)[C@H](Cc1ccc(N2C(=O)C3(CC3)c3cccnc32)cc1)NC(c1ccccc1)(c1ccccc1)c1ccccc1` [US20240150287, Example 16], the IC50 turned out to be 0.75 nM. In the case of `COC(=O)[C@H](Cc1ccc(-n2c(=O)n(C)c3cc(Cl)c(Cl)cc32)cc1)NC(c1ccccc1)(c1ccccc1)c1ccccc1` [US20240150287, Example 32] it was 4.19 nM.

The term IC50 denotes the concentration at which inhibition is half-maximal.

For the origin of these results see BindingDB's records for patent US20240150287 (Hangzhou Apeloa Medicine Research Institute Co., 2024).
